Source: ChEMBL document CHEMBL3621157, “Design, synthesis and biological evaluation of novel 1,2,4-triazolo and 1,2,4-triazino[4,3-a]quinoxalines as potential anticancer and antimicrobial agents” (2015)
Converted amounts (≈) assume the structure as drawn.

What was measured:
Assay type in all cases: functional
MDA-MB-468 = assay: Growth inhibition of human MDA-MB-468 cells incubated for 48 hrs by sulforhodamine B assay; conditions: MDA-MB-468, 48 h
OVCAR-4 = assay: Growth inhibition of human OVCAR4 cells incubated for 48 hrs by sulforhodamine B assay; conditions: OVCAR-4, 48 h
CAKI-1 = assay: Growth inhibition of human CAKI-1 cells incubated for 48 hrs by sulforhodamine B assay; conditions: CAKI-1, 48 h
[1] = Growth inhibition of human RPMI8226 cells incubated for 48 hrs by sulforhodamine B assay; conditions: RPMI-8226, 48 h
Bacillus subtilis [2] = assay: Antimicrobial activity against Bacillus subtilis ATCC 6633 incubated for 24 hrs followed by transfer of colonies to Muller-Hinton agar plate and measured after 18 hrs by two-fold serial broth dilution method
U-251 = assay: Growth inhibition of human U251 cells at 10 uM incubated for 48 hrs by sulforhodamine B assay; conditions: U-251, 48 h, read-out: GI
UACC-257 = assay: Growth inhibition of human UACC257 cells incubated for 48 hrs by sulforhodamine B assay; conditions: UACC-257, 48 h
Escherichia coli [3] = assay: Antimicrobial activity against Escherichia coli ATCC 11775 incubated at 37 degC for 24 hrs by cup diffusion method
[4] = Growth inhibition of human RPMI8226 cells at 10 uM incubated for 48 hrs by sulforhodamine B assay; conditions: RPMI-8226, 48 h, read-out: GI
MCF7 = assay: Growth inhibition of human MCF7 cells incubated for 48 hrs by sulforhodamine B assay; conditions: MCF7, 48 h
HCT-116 = assay: Growth inhibition of human HCT116 cells incubated for 48 hrs by sulforhodamine B assay; conditions: HCT-116, 48 h
Bacillus subtilis [5] = assay: Antimicrobial activity against Bacillus subtilis ATCC 6633 incubated at 37 degC for 24 hrs by cup diffusion method
HL-60(TB) [6] = assay: Growth inhibition of human HL-60(TB) cells at 10 uM incubated for 48 hrs by sulforhodamine B assay; conditions: HL-60, 48 h, read-out: GI
NCI-H322M = assay: Growth inhibition of human NCI-H322M cells incubated for 48 hrs by sulforhodamine B assay
Candida albicans = assay: Antimicrobial activity against Candida albicans DSM 70014 incubated for 48 hrs followed by transfer of colonies to Muller-Hinton agar plate and measured after 18 hrs by two-fold serial broth dilution method
SNB-75 = assay: Growth inhibition of human SNB75 cells incubated for 48 hrs by sulforhodamine B assay; conditions: SNB-75, 48 h
[7] = Growth inhibition of human RXF393 cells incubated for 48 hrs by sulforhodamine B assay; conditions: RXF 393, 48 h
Escherichia coli [8] = assay: Antimicrobial activity against Escherichia coli ATCC 11775 incubated for 24 hrs by two-fold serial broth dilution method; conditions: ATCC 11775, 24 h
SR [9] = assay: Growth inhibition of human SR cells incubated for 48 hrs by sulforhodamine B assay
[10] = Growth inhibition of human MOLT4 cells incubated for 48 hrs by sulforhodamine B assay; conditions: MOLT-4, 48 h
KM12 = assay: Growth inhibition of human KM12 cells incubated for 48 hrs by sulforhodamine B assay; conditions: KM12, 48 h
SK-MEL-5 = assay: Growth inhibition of human SK-MEL-5 cells incubated for 48 hrs by sulforhodamine B assay; conditions: SK-MEL-5, 48 h
MDA-MB-231 = assay: Growth inhibition of human MDA-MB-231 cells incubated for 48 hrs by sulforhodamine B assay; conditions: MDA-MB-231, 48 h
SR [11] = assay: Growth inhibition of human SR cells at 10 uM incubated for 48 hrs by sulforhodamine B assay; conditions: read-out: GI
DU-145 = assay: Growth inhibition of human DU145 cells incubated for 48 hrs by sulforhodamine B assay; conditions: DU-145, 48 h
[12] = Growth inhibition of human LOXIMVI cells at 10 uM incubated for 48 hrs by sulforhodamine B assay; conditions: LOX IMVI, read-out: GI
Staphylococcus aureus [13] = assay: Antimicrobial activity against Staphylococcus aureus DSM 1104 incubated for 24 hrs by two-fold serial broth dilution method; conditions: DSM 1104, 24 h
K562 [14] = assay: Growth inhibition of human K562 cells incubated for 48 hrs by sulforhodamine B assay; conditions: K562, 48 h
[15] = Growth inhibition of human HOP92 cells incubated for 48 hrs by sulforhodamine B assay; conditions: HOP-92, 48 h
[16] = Growth inhibition of human NCI-ADR-RES cells incubated for 48 hrs by sulforhodamine B assay
UACC-62 = assay: Growth inhibition of human UACC62 cells incubated for 48 hrs by sulforhodamine B assay; conditions: UACC-62, 48 h
NCI-H522 = assay: Growth inhibition of human NCI-H522 cells incubated for 48 hrs by sulforhodamine B assay; conditions: NCI-H522, 48 h
NCI-H460 = assay: Growth inhibition of human NCI-H460 cells at 10 uM incubated for 48 hrs by sulforhodamine B assay; conditions: NCI-H460, 48 h, read-out: GI
HCT-15 [17] = assay: Growth inhibition of human HCT15 cells at 10 uM incubated for 48 hrs by sulforhodamine B assay; conditions: HCT-15, 48 h, read-out: GI
T47D = assay: Growth inhibition of human T47D cells incubated for 48 hrs by sulforhodamine B assay
Bacillus subtilis [18] = assay: Antimicrobial activity against Bacillus subtilis ATCC 6633 incubated for 24 hrs by two-fold serial broth dilution method; conditions: ATCC 6633, 24 h
OVCAR-8 = assay: Growth inhibition of human OVCAR8 cells incubated for 48 hrs by sulforhodamine B assay; conditions: OVCAR-8, 48 h
CCRF-CEM = assay: Growth inhibition of human CCRF-CEM cells incubated for 48 hrs by sulforhodamine B assay
[19] = Growth inhibition of human HCC2998 cells incubated for 48 hrs by sulforhodamine B assay; conditions: HCC 2998, 48 h
HL-60(TB) [20] = assay: Growth inhibition of human HL-60(TB) cells incubated for 48 hrs by sulforhodamine B assay; conditions: HL-60, 48 h
HCT-15 [21] = assay: Growth inhibition of human HCT15 cells incubated for 48 hrs by sulforhodamine B assay; conditions: HCT-15, 48 h
[22] = Growth inhibition of human SF539 cells incubated for 48 hrs by sulforhodamine B assay; conditions: SF-539, 48 h
K562 [23] = assay: Growth inhibition of human K562 cells at 10 uM incubated for 48 hrs by sulforhodamine B assay; conditions: K562, 48 h, read-out: GI
TK-10 = assay: Growth inhibition of human TK10 cells incubated for 48 hrs by sulforhodamine B assay; conditions: TK-10, 48 h
[24] = Growth inhibition of human Hs 578T cells incubated for 48 hrs by sulforhodamine B assay
Staphylococcus aureus [25] = assay: Antimicrobial activity against Staphylococcus aureus DSM 1104 incubated for 24 hrs followed by transfer of colonies to Muller-Hinton agar plate and measured after 18 hrs by two-fold serial broth dilution method

Clc1ccccc1-c1nnc2c(Cc3ccccc3)nc3ccccc3n12
GI50 (MDA-MB-468): 5.55 µM
GI50 (OVCAR-4): 8.01 µM
GI50 (CAKI-1): 9.71 µM
GI50 [1]: 5.64 µM
MBC (Bacillus subtilis [2]): 50 µg/mL (≈ 135 µM)
inhibition of growth at 10 µM (U-251): 57.2%
GI50 (UACC-257): 34.3 µM
inhibition zone (IZ) (Escherichia coli [3]): 10 mm
inhibition of growth at 10 µM [4]: 63.8%
GI50 (MCF7): 22.2 µM
GI50 (HCT-116): 3.21 µM
inhibition zone (IZ) (Bacillus subtilis [5]): 12 mm
inhibition of growth at 10 µM (HL-60(TB) [6]): 46.4%
GI50 (NCI-H322M): 53.9 µM
MFC (Candida albicans): 200 µg/mL (≈ 539 µM)
GI50 (SNB-75): 6.12 µM
GI50 [7]: 8.45 µM
MIC (Escherichia coli [8]): 25 µg/mL (≈ 67.4 µM)
GI50 (SR [9]): 3.91 µM
GI50 [10]: 9.04 µM
GI50 (KM12): 9.48 µM
GI50 (SK-MEL-5): 5.9 µM
GI50 (MDA-MB-231): 6.24 µM
inhibition of growth at 10 µM (SR [11]): 84.9%
GI50 (DU-145): 44.2 µM
inhibition of growth at 10 µM [12]: 60.6%
MIC (Staphylococcus aureus [13]): 100 µg/mL (≈ 270 µM)
GI50 (K562 [14]): 5.55 µM
GI50 [15]: 3.45 µM
GI50 [16]: 7.04 µM
GI50 (UACC-62): 7.96 µM
GI50 (NCI-H522): 53.9 µM
inhibition of growth at 10 µM (NCI-H460): 84.4%
inhibition of growth at 10 µM (HCT-15 [17]): 55.4%
GI50 (T47D): 6.82 µM
MIC (Bacillus subtilis [18]): 25 µg/mL (≈ 67.4 µM)
GI50 (OVCAR-8): 7.21 µM
GI50 (CCRF-CEM): 7.11 µM
GI50 [19]: 42.8 µM
GI50 (HL-60(TB) [20]): 32.5 µM
GI50 (HCT-15 [21]): 1.96 µM
GI50 [22]: 24.2 µM
inhibition of growth at 10 µM (K562 [23]): 78.6%
GI50 (TK-10): 37.4 µM
GI50 [24]: 9.66 µM
MBC (Staphylococcus aureus [25]): 200 µg/mL (≈ 539 µM)
